Assay results as given in patent US10219516B2, “Molecules having pesticidal utility, and intermediates, compositions, and processes, related thereto” (priority 2015, dated 2019).
Like-named read-outs stand apart in the source and are kept apart here.

Assays:
Format in all cases: in vivo
[1] = system: Beet Armyworm (Spodoptera exigua, LAPHEG); test: Bioassay on Beet Armyworm (BAW), 128-well diet tray assay
Outline: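 Diet in each of eight wells received 50 μg/cm^2 of test molecule (90:10 acetone-water, dried), then one to five second-instar larvae were added. Mortality (%) was scored after five to seven days at 25° C. under 14:10 light-dark and averaged across the wells.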

[2] = system: Cabbage Looper (Trichoplusia ni, TRIPNI); test: Bioassay on Cabbage Looper (CL), 128-well diet tray assay; details: Trichoplusia ni
Outline: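 Using eight wells per molecule, artificial diet was dosed at 50 μg/cm^2 with compound in 90:10 acetone-water and dried before one to five second-instar larvae were added per well. Covered vented trays were kept at 25° C. with 14:10 light-dark for five to seven days, then per-well percent mortality was recorded and averaged.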

[3] = system: Yellow Fever Mosquito (Aedes aegypti, AEDSAE); test: Bioassay on Yellow Fever Mosquito (YFM), 96-well plate larval assay; details: for YFM rating: Yellow Fever Mosquito, 96-well plate larval assay; for YFM (Biological Results, rating): Species YFM (Yellow Fever Mosquito)
Outline: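 Aedes aegypti larvae (about 1 day old) in liver-powder water were added to plates dispensed from DMSO master plates (4000 ppm stock) diluted with 90:10 water/acetone; six replicate plates per master. Lidded plates were held at room temperature for 3 days, then each well was scored for mortality.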

[4] = Beet Armyworm, 128-well diet tray assay, read-out: BAW rating
[5] = Cabbage Looper, 128-well diet tray assay, read-out: CL rating
[6] = Species BAW (Beet Armyworm), read-out: BAW (Biological Results, rating)
[7] = Species CL (Cabbage Looper), read-out: CL (Biological Results, rating)

Structure (SMILES)	pest or weed control at 50 µg/cm2 [1, 4] [%]	pest or weed control at 50 µg/cm2 [2, 5] [%]	YFM rating [3]	pest or weed control at 50 µg/cm2 [1, 6] [%]	pest or weed control at 50 µg/cm2 [2, 7] [%]	YFM (Biological Results, rating) [3]
N#Cc1ccc(NC(=O)c2cc(NC(=O)[C@H]3[C@H](c4cc(Cl)cc(Cl)c4)C3(Cl)Cl)ccc2Cl)nc1 (relative stereo) [PF143, trans-2-Chloro-N-(5-cyanopyridin-2-yl)-5-(2,2-dichloro-3-(3,5-dichlorophenyl)cyclopropane-1-carboxamido)benzamide]	50 to 100	50 to 100	A (80-100)			
CC(=O)Nc1ccc(NC(=O)c2cc(NC(=O)[C@H]3[C@H](c4cc(Cl)cc(Cl)c4)C3(Cl)Cl)ccc2Cl)c(C)c1 (relative stereo) [PF158, trans-N-(4-Acetamido-2-methylphenyl)-2-chloro-5-(2,2-dichloro-3-(3,5-dichlorophenyl)cyclopropane-1-carboxamido)benzamide]	50 to 100	50 to 100	A (80-100)			
COCC1(C(=O)Nc2ccc(NC(=O)c3cc(NC(=O)[C@H]4[C@H](c5cc(Cl)cc(Cl)c5)C4(Cl)Cl)ccc3Cl)cc2)CC1 (relative stereo) [PF161, trans-2-Chloro-5-(2,2-dichloro-3-(3,5-dichlorophenyl)cyclopropane-1-carboxamido)-N-(4-(1-(methoxymethyl)cyclopropane-1-carboxamido)phenyl)benzamide]	50 to 100	50 to 100	A (80-100)			
O=C(CC1CC1)Nc1ccc(NC(=O)c2cc(NC(=O)[C@H]3[C@H](c4cc(Cl)cc(Cl)c4)C3(Cl)Cl)ccc2Cl)cc1 (relative stereo) [PF163, trans-2-Chloro-N-(4-(2-cyclopropylacetamido)phenyl)-5-(2,2-dichloro-3-(3,5-dichlorophenyl)cyclopropane-1-carboxamido)benzamide]	50 to 100	50 to 100	A (80-100)			
O=C(Nc1ccc(F)cc1)c1cc(NC(=O)[C@@H]2[C@@H](c3cc(Cl)cc(Cl)c3)C2(Cl)Cl)ccc1Cl [F166, 2-Chloro-5-((1S,3S)-2,2-dichloro-3-(3,5-dichlorophenyl)cyclopropane-1-carboxamido)-N-(4-fluorophenyl)benzamide]				50 to 100	50 to 100	B (More than 0-Less than 80)
CN(C(=O)c1cc(NC(=O)C2C(c3cc(Cl)cc(Cl)c3)C2(Cl)Br)ccc1Cl)c1ccc(F)cc1 (stereo not drawn) [F167, 5-(trans)-2-Bromo-2-chloro-3-(3,5-dichlorophenyl)cyclopropanecarboxamido)-2-chloro-N-(4-fluorophenyl)-N-methylbenzamide]				50 to 100	50 to 100	B (More than 0-Less than 80)
CN(C(=O)c1cc(NC(=O)[C@H]2[C@H](c3cc(Cl)cc(Cl)c3)C2(Cl)Cl)ccc1Cl)c1ccc(F)cc1 [F169, 2-Chloro-5-((1R,3R)-2,2-dichloro-3-(3,5-dichlorophenyl)cyclopropane-1-carboxamido)-N-(4-fluorophenyl)-N-methylbenzamide]				50 to 100	50 to 100	A (80-100)
CN(C(=O)c1cc(NC(=O)[C@@H]2[C@@H](c3cc(Cl)cc(Cl)c3)C2(Cl)Cl)ccc1Cl)c1ccc(F)cc1 [F170, 2-Chloro-5-((1S,3S)-2,2-dichloro-3-(3,5-dichlorophenyl)cyclopropane-1-carboxamido)-N-(4-fluorophenyl)-N-methylbenzamide]				50 to 100	50 to 100	A (80-100)
O=C(Nc1cc2[nH]ccc2cc1Br)c1cc(NC(=O)C2C(c3cc(Cl)cc(Cl)c3)C2(Cl)Cl)ccc1Cl (stereo not drawn) [F172, N-(5-Bromo-1H-indol-6-yl)-2-chloro-5-(trans)-2,2-dichloro-3-(3,5-dichlorophenyl)cyclopropane-1-carboxamido)benzamide]				50 to 100	50 to 100	B (More than 0-Less than 80)
